This assay deals with T1, collagenase (Homo sapiens, UniProt P03956).
T1 construct: endogenous in cells; host or cells: normal human skin fibroblasts (culture medium)
T1 sequence (P03956 100-469): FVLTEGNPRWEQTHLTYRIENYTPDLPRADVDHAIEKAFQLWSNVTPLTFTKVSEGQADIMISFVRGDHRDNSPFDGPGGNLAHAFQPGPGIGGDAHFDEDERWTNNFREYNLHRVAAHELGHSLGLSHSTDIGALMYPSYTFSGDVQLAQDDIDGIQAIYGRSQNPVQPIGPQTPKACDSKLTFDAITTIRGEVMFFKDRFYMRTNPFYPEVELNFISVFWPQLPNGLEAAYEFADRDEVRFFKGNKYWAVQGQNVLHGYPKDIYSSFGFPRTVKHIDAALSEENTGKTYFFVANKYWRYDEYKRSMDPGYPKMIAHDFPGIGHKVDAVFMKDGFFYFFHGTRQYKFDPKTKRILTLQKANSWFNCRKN
Briefly: Rate of hydrolysis of substrates by collagenase, assayed by HPLC. It is filed as biochemical. The note with it: Comparison of Substrate; assayed by HPLC (no chromophore). The protocol:
The following Table I sets forth the relative rates of hydrolysis in the above spectrophotometric assay using the above thiopeptolides as substrates in comparison to the rates of hydrolysis assayed by High Performance Liquid Chromatography (HPLC) of two commercially available substrates for collagenase and two other substrates described in copending Application Ser. No. 450,318, cited hereinbefore.

Data on four molecules can be found in patent publication US4596675A, “Novel thiopeptolide substrates for vertebrate collagenase” (Monsanto Company, priority 1985, dated 1986).

Non-standard residues stand in square brackets, D forms with d. Residues, ends and D or L forms follow the SMILES beside them. *: point of attachment. Dnp = O=[N+]([O-])c1ccc(*)c([N+](=O)[O-])c1

`CCOC(=O)CNC(=O)[C@H](C)NC(=O)[C@H](CC(C)C)NC(=O)CNC(=O)[C@H](CC(C)C)NC(=O)[C@@H]1CCCN1C(C)=O` [Ac--Pro--Leu--Gly--Leu--Ala--Gly--OC2 H5] (Ac-PLGLAG-OEt): the “Relative Rate (of hydrolysis)” value is listed as 110.

Consider `CCOC(=O)CNC(=O)[C@H](CC(C)C)NC(=O)[C@H](CC(C)C)NC(=O)CNC(=O)[C@H](CC(C)C)NC(=O)[C@@H]1CCCN1C(C)=O` [Ac--Pro--Leu--Gly--Leu--Leu--Gly--OC2 H5] (Ac-PLGLLG-OEt), for which the “Relative Rate (of hydrolysis)” value came out at 250.

Consider `CC[C@H](C)[C@H](NC(=O)CNC(=O)[C@H](CCC(N)=O)NC(=O)[C@@H]1CCCN1c1ccc([N+](=O)[O-])cc1[N+](=O)[O-])C(=O)N[C@@H](C)C(=O)NCC(=O)N[C@@H](CCC(N)=O)C(=O)N[C@H](CCCNC(=N)N)C(=O)O` [DNP-Pro-Gln-Gly-Ile-Ala-Gly-Gln-D-Arg-OH] (Dnp-PQGIAGQ[dR]-OH), for which the “Relative Rate (of hydrolysis)” value is 5.

Consider `CC[C@H](C)[C@H](NC(=O)CNC(=O)[C@H](CC(C)C)NC(=O)[C@@H]1CCCN1c1ccc([N+](=O)[O-])cc1[N+](=O)[O-])C(=O)N[C@@H](C)C(=O)NCC(=O)N[C@@H](CCCNC(=N)N)C(N)=O` [DNP-Pro-Leu-Gly-Ile-Ala-Gly-Arg-NH2] (Dnp-PLGIAGR-NH2), for which the “Relative Rate (of hydrolysis)” value is listed as 25.
